We go through five compounds from paper PMC11923636, “Synthesis, Pharmacological Evaluation, and Molecular Modeling of Phthalimide Derivatives as Monoamine Oxidase and Cholinesterase Dual Inhibitors” (ACS Omega, 2025).

As a reminder, the Ki is a measure of affinity in units of concentration, obtained from inhibition or displacement. The term IC50 denotes the concentration needed to halve the response being measured. What is called Papp is a coefficient for how fast a substance crosses the barrier. Low values mean slow passage, high ones fast passage.

In one data set the target is BChE. To be noted: read-out: BChE enzyme inhibition dissociation constant (Ki value); cited from earlier work.
The next data set has as its target AChE. To be noted: cited from earlier work.
In another data set the test system is MAO-B. To be noted: weak inhibition compared to the standard; ref number not given; cited from earlier work.
The target of data set [1] is T1, equine serum lyophilized BChE (Equus caballus, UniProt P81908).
T1 construct: Equine Serum lyophilized BChE; from tissue; host or cells: equine serum
T1 sequence (P81908 whole entry): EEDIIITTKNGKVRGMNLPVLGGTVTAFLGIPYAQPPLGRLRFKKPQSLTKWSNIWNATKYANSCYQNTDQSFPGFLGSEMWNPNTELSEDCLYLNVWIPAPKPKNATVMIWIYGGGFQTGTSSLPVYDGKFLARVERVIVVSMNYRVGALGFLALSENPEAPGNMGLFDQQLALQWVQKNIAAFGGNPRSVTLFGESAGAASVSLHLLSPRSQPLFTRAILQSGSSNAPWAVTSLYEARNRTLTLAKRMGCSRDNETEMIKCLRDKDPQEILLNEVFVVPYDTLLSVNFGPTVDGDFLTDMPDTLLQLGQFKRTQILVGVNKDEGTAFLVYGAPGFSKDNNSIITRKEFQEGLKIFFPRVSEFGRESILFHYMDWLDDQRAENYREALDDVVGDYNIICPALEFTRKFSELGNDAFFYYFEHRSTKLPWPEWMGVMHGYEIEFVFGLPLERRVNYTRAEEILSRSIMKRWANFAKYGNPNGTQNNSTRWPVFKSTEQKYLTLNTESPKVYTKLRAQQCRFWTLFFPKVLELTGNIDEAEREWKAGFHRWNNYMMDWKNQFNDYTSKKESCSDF
Nature of the data set: biochemical. The note with it: mean ± SEM, n = 3; read-out: IC50 (μM) ± SEM eqBChE. As to the method: (§1) The synthesized compounds were evaluated for their inhibition potential against cholinesterases (Electrophorus electricus AChE and equine serum lyophilized BChE).
(§2) The cholinesterase in vitro bioassay for the synthesized compounds was performed using already reported protocols.[29],[30] Ellman’s assay method was used to study the inhibition of Electrophorus electricus AChE and Equine Serum lyophilized BChE. Stock solutions of synthesized compounds were prepared in potassium phosphate buffer (pH 8.0). A sufficient amount of 5,5-dithio-bis-2-nitrobenzoic acid (DTNB, Ellman’s reagent), a stock solution of synthesized compounds, and 0.03 U/ml of the enzyme (AChE or BChE) were added to a 96-well plate and incubated at 30 °C for 10 min. Subsequently, 1 mM ATCI or BTCI was added, and the reaction mixture was incubated for 15 min. […] Sample concentration was plotted against inhibitory activity to obtain IC50 values.

The target in another data set is T2, mice brain MAO-B (Mus musculus, UniProt Q8BW75).
T2 construct: from tissue; host or cells: ICR mouse brain homogenate pellet
T2 sequence (Q8BW75 1-520): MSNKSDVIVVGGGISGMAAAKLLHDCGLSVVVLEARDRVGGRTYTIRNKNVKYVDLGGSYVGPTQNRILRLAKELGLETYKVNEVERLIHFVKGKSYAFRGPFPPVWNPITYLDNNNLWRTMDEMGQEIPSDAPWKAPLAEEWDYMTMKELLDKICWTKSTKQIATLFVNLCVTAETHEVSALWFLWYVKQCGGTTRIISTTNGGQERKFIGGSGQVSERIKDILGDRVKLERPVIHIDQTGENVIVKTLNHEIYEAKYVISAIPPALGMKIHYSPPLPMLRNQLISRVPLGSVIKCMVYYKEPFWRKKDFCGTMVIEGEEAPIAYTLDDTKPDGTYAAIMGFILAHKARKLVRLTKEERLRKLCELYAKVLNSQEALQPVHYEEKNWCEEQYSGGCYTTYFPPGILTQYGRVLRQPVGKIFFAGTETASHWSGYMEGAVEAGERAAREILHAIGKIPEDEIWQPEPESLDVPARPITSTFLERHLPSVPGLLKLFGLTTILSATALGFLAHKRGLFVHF
Nature of the data set: Ex vivo MAO-B inhibition reversibility time course. It is filed as in vivo, ICR mice. To be noted: single ip dose. As for the experimental part:
After the experiments, the animals were euthanized following Animal Euthanasia (AVMA Guidelines) guidelines to ensure humane treatment. Five groups of ICR mice were administered test samples by intraperitoneal injection, and the intact brains were excised and were then frozen for almost 1 h (−20 °C). Brain tissue ([…]) was suspended in sucrose (0.3 M) using a homogenizer (Ultra-Turrax T8; at 60 Hz for almost 70 s) and then subjected to centrifugation for 10 min at 1500 rpm (4 °C). 200 μL of supernatant was collected and centrifuged for 20 min at 15,000 rpm and 4 °C. Subsequently, the formed pellet was resuspended in KHPO4 solution (pH 7.2, 600 μL) and then subjected to 20 min centrifugation at 15,000 rpm and 4 °C. This process was repeated three times. Enzyme activity was determined using an Assay Kit (monoamine oxidase). […] The mice were then sacrificed at intervals ranging from 0.5 to 48 h.[34]

Another data set concerns the target T3, human MAO-A (Homo sapiens, UniProt P21397).
T3 sequence (P21397 1-527): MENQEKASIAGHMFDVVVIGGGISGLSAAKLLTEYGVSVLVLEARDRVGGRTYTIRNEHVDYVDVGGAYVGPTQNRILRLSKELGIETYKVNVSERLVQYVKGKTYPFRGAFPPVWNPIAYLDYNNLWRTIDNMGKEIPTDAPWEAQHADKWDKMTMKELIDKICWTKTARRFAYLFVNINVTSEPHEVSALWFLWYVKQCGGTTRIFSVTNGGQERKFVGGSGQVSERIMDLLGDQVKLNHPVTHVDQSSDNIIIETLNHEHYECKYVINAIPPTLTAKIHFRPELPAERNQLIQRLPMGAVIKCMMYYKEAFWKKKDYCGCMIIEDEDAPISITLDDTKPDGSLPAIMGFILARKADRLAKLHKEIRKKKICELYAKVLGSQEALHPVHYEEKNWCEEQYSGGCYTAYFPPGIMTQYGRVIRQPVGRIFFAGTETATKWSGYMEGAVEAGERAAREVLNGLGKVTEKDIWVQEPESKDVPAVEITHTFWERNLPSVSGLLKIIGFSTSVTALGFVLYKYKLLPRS
Briefly: Human MAO isoform inhibition assay (fluorometric), MAO-A. The format is biochemical. To be noted: mean ± SEM, n = 3; read-out: IC50 (μM) ± SEM hMAO-A. As to the method:
(§3) The human MAO isoform assay was also carried out using a fluorescence-based assay protocol according to the reported literature.
(§4) Inhibitory activity of the synthesized compounds against MAO isoforms, specifically human MAO-A and MAO-B, was determined by using benzylamine and tyramine substrates in the dark (protected from light) in a 96-well plate by an already reported fluorometric method.[31],[32]

A further data set has as its target T4, human MAO-B (Homo sapiens, UniProt P27338).
T4 sequence (P27338 1-520): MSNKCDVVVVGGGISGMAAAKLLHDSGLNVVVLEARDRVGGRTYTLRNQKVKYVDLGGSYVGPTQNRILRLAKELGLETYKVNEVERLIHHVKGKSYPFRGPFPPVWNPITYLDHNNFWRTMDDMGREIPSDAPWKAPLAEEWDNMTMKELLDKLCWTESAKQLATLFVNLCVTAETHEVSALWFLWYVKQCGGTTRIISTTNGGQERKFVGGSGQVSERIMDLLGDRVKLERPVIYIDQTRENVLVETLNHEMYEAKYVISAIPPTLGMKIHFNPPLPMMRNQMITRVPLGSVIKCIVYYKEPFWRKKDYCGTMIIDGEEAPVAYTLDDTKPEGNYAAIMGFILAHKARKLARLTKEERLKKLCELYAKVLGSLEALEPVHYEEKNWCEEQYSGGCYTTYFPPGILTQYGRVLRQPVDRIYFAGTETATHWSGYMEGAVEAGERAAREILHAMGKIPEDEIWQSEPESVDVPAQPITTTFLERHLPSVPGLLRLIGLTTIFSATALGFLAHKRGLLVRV
Briefly: Human MAO isoform inhibition assay (fluorometric), MAO-B. It is filed as biochemical. As for the experimental part: as §3, §4

Data set [2] has as its system SH-SY5Y neuroblastoma cells. The format is cell-based. The note with it: MTT. As to the method:
To determine the biological safety of the synthesized compounds, we performed a cytotoxicity study using a human SH-SY5Y neuroblastoma cell line.
SH-SY5Y cells were cultured in 96-well plates (1 × 10^5 cells/well) in a medium containing fetal bovine serum (FBS), penicillin (100 U/ml), and streptomycin ([…]) at 37 °C and 5% CO2. […] Subsequently, synthesized compounds were added to cells, followed by the addition of 20 μL of MTT reagent (10 mg/mL) at the specified time. Plates were then incubated at 37 °C and 5% CO2, and purple color precipitate formation was observed by a microscope. Lastly, DMSO ([…]) was added to solubilize precipitates, and the plates were read at 570 nm to determine the cell viability. Results are expressed as percentage growth of cells, in which their viability is compared to control cells in the presence or absence of synthesized compounds and a standard. The following formula was utilized for the measurement of the % cell viability. [drawing 1]

The next data set can be described thus: in vitro. As for the experimental part: A fundamental requirement for the effectiveness of anti-AD drugs is their capability to traverse the BBB (blood–brain barrier). […]
Briefly, synthesized compounds were first dissolved in DMSO (10 mM) that was further diluted by the addition of phosphate buffer ([…]) having a pH of 7.4. PBL dissolved in dodecane was used for coating the membranes of the donor plates. Then, the test compound (0.2 mL) was added to the plate, followed by PBS (0.2 mL; pH = 7.4) to the acceptor plate, which was further placed under the donor plate in order to form a “sandwich”. […] A UV plate reader was employed for the measurements of the drug concentration in donor, acceptor, and reference wells. The permeability (Pe) of the compounds was measured by using the following formula. [drawing 2]

Data set [3] has as its target Electrophorus electricus AChE (Electrophorus electricus, UniProt O42275). Briefly: biochemical. It is filed as biochemical. As to the method:
as §1, §2

Marks after values point to notes of the source that are not given here.

Chain of Electrophorus electricus AChE (O42275 24-633): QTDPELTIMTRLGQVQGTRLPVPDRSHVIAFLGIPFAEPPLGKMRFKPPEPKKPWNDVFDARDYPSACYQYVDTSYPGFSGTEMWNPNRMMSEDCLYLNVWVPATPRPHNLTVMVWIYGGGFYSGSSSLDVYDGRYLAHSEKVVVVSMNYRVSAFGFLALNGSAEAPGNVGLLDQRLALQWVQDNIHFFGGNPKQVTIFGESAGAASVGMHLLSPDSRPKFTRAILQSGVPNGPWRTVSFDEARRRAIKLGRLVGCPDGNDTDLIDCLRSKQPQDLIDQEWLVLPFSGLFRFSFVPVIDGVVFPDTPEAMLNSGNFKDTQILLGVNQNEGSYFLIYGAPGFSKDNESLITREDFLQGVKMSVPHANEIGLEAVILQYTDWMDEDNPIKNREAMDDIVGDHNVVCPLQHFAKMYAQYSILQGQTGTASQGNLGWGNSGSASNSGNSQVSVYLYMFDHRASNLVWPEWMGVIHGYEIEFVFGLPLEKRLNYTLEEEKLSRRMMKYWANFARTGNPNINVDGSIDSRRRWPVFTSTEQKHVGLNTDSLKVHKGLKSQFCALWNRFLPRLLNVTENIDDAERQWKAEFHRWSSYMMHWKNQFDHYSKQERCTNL

`O=C1c2ccccc2C(=O)N1CCc1cc2ccccc2[nH]1` [IV]: the inhibitory constant (Ki) on BChE was 100 µM.
For `O=C1c2ccccc2C(=O)N1C/C=C/CN1CCN(Cc2ccccc2)CC1` [III], on AChE (read-out: AChE enzyme inhibition dissociation constant (Ki value)), the Ki is 193 µM.
As to N-benzylphthalimide [V], the IC50 in the data set on MAO-B was 10.5 µM.
On to `COc1cc(CN2C(=O)c3cc(Cl)c(Cl)cc3C2=O)cc(OC)c1OC` [II], for which the half-inhibitory concentration (IC50) with AChE (reported in the literature, ref number not given) is 0.0135 µM.
As to `O=C1c2ccccc2C(=O)N1Cc1ccc(-c2ccc(C(F)(F)F)cc2)cc1` [3e], the IC50 in data set [1] turned out to be 6.29 ± 0.17 µM; on human MAO-A, 16.5 ± 0.66 µM; on human MAO-B (mean ± SEM, n = 3, read-out: IC50 (μM) ± SEM hMAO-B), 0.11 ± 0.01 µM; in data set [3] (mean ± SEM, n = 3, read-out: IC50 (μM) ± SEM eeAChE) it was 0.24 ± 0.01 µM. Besides, the “activity of MAO-B recovered” value is 50% on mice brain MAO-B (after 5 h) and roughly 95% on mice brain MAO-B (after 24 h). The “SI (IC50 hMAO-A/IC50 hMAO-B)” value at human MAO-B (selectivity index) was found to be 150. Moreover, the “cytotoxicity on SH-SY5Y cells” value in data set [2] (10, 20, 30, and 50 μM) is “No cytotoxicity”. For the same compound, the “neurotoxicity on SH-SY5Y cells” value in [2] (higher concentrations (100 μM)) is “negligible neurotoxicity”. Further, the Papp at 20 h in “in vitro” (PAMPA, pH 7.4) worked out at 18.7 ± 1.12 ×10⁻⁶ cm/s. In addition, in “in vitro” (class from PAMPA-BBB Pe), the “prediction of CNS penetration” value is “CNS+ ^b (“CNS+” (prediction of high BBB permeation); Pe (10^–6 cm/s) > 4.39)”. Also, in [3] (selectivity index), the “SI = IC50 of BChE/IC50 of AChE” value came to 26.
